{
  "source": "paper PMC11120720",
  "about": "“Linking Variability in Phytochemical Composition with Safety Profile of Thymus carnosus Boiss. Extracts: Effect of Major Compounds and Evaluation of Markers of Oxidative Stress and Cell Death” (International Journal of Molecular Sciences, 2024)",
  "key": {"[1]": {"tested_on": "hepatocarcinoma cells (HuH7)", "parameters": "method as in PMID 20415421", "settings": "20-80 µM; cited from earlier work"}, "HepG2 cells [2]": {"tested_on": "HepG2 cells", "assay": "Annexin V-FITC/PI apoptosis/necrosis, HepG2", "type": "cell-based, human", "settings": "compound 50 µM, 24 h", "description": "(§1) The cells were then equally divided for each assay.\n(§2) For the assessment of apoptotic/necrotic cell death, an Annexin V-FITC (Thermo Fisher Scientific, Waltham, MA, USA) and propidium iodide (PI; Merck, Darmstadt, Germany) double-staining assay was used to evaluate the apoptotic/necrotic cell death induced by T. carnosus extracts and by individual phytochemicals, as described previously. Briefly, after detachment and washing, the supernatant was discarded, and 200 µL of Annexin V-FITC (1:200 dilution in Annexin-binding buffer [10 mM HEPES sodium salt, 150 mM NaCl, 5 mM KCl, 5 mM MgCl2, and 1.8 mM CaCl2; pH = 7.4]) was added. Cells were incubated for 20 min (room temperature, in the dark). After incubation, 5 µL of propidium iodide (PI; 50 µg/mL) was added, the cells were incubated for 5 min on ice (in the dark), and the data were acquired."}, "HepG2 cells [3]": {"tested_on": "HepG2 cells", "assay": "Alamar Blue cell viability assay, HepG2", "type": "cell-based, human", "settings": "Homo sapiens, HepG2", "description": "(§3) The safety profile of T. carnosus AD and HE extracts was evaluated in Caco-2 and HepG2 cells using an Alamar Blue® (Invitrogen; Alfagene, Lisboa, Portugal) assay. An initial screening was performed for all extracts at concentrations ranging between 100 and 1000 µg/mL. Due to the higher toxicity of the HE extracts, which was previously described for various extracts of Thymus species using the same extraction methods (e.g., T. mastichina and Thymus zygis), a different set of concentrations was used for the HE extracts (between 100 and 300 µg/mL for Caco-2 cells and 50 and 150 µg/mL for HepG2 cells). Figure 1 presents the data related to the cell viability assays in Caco-2 (panels A–E) and HepG2 cells (panels F–J) exposed to T. carnosus extracts, as indicated.\n(§4) The safety profile of T. carnosus extracts was assessed in Caco-2 and HepG2 cells. Caco-2 (human colon adenocarcinoma cell line) were obtained from CLS (Cell Lines Service, Eppelheim, Germany), and HepG2 (human hepatocellular carcinoma cell line) were obtained from ATCC (American Type Culture Collection, Manassas, VA, USA).\n(§5) Cell culture maintenance, handling, subculturing, and seeding were performed as described by Silva et al., 2020 [5], and cell viability was assessed using an Alamar Blue® assay, as described by Andreani et al., 2014 [64]. Concentrations ranged between 100 and 1000 µg/mL for AD extracts in both cell lines and 100 to 300 µg/mL or 50 to 150 µg/mL for HE extracts in Caco-2 and HepG2 cells, respectively. The effect of individual compounds on cell viability was assessed for concentrations ranging from 50 to 300 µM. All test solutions were prepared by diluting the samples in FBS-free culture media from the stock solutions described in Section 3.2, just prior to being used.\n(§6) The results are presented as mean ± SD of at least three independent assays. The calculation of IC50 values was performed as described by Silva et al., 2020 [5]. Data analysis, graphical design, and statistical analysis were performed using Microsoft Office Excel (Professional Plus 2019; Microsoft Corporation, Washington, DC, USA) and GraphPad Prism (Version 8; GraphPad Software Inc., San Diego, CA, USA). Flow cytometry data analysis was performed using BD Accuri™ C6 Software, version 1.0.264.21 (Becton Dickinson, San Diego, CA, USA)."}, "Caco-2 cells [4]": {"tested_on": "Caco-2 cells", "assay": "Alamar Blue cell viability assay, Caco-2", "type": "cell-based, human", "settings": "Homo sapiens, Caco-2", "description": "as §3, §4, §5, §6"}, "[5]": {"parameters": "method as in PMID 31344882, PMID 26042707", "settings": "cited from earlier work"}, "[6]": {"tested_on": "colorectal cancer (HCT15) cells", "parameters": "method as in PMID 12046077", "settings": "cited from earlier work"}, "HepG2 cells [7]": {"tested_on": "HepG2 cells", "settings": "read-out: IC50, HepG2 cells; 72 h; cited from earlier work"}, "Caco-2 cells [8]": {"tested_on": "Caco-2 cells", "assay": "Annexin V-FITC/PI apoptosis/necrosis, Caco-2", "type": "cell-based", "settings": "compound 50 µM, 24 h", "description": "as §1, §2"}, "HepG2 cells [9]": {"tested_on": "HepG2 cells", "assay": "Intracellular ROS (DCFDA, flow cytometry), HepG2", "type": "cell-based, human", "settings": "compound 50 µM, 24 h", "description": "as §1\n(§7) Intracellular ROS level assessment was performed as described by Silva et al., 2022 [65], using dichlorodihydrofluorescein diacetate (DCFDA). Cells obtained in the previous step were centrifuged, the supernatant discarded, and 200 µL of DCFDA (10 µM in FBS-free DMEM) was added. Cells were incubated for 45 min (37 °C, in the dark), washed to remove excess probe, and resuspended in PBS for data acquisition."}, "HepG2 cells [10]": {"tested_on": "HepG2 cells", "assay": "Mitochondrial membrane potential (JC-1, flow cytometry), HepG2", "type": "cell-based, human", "settings": "compound 50 µM, 24 h", "description": "Flow cytometry was used to analyze the effect of T. carnosus extracts on intracellular ROS, modulation of mitochondrial membrane potential (MMP), cell cycle arrest, and apoptotic/necrotic cell death induction.\nBoth one- and two-color assays were performed using a BD Accuri™ C6 cytometer (Becton Dickinson, Franklin Lakes, NJ, USA), and 10,000 gated events were collected from each sample [1]. For flow cytometry assays, cells were handled as described previously but seeded at a density 5 × 10^4 cells/mL (750 μL/well) in 12-well plates. Caco-2 and HepG2 cells were incubated for 24 h with the extracts (100 µg/mL) or individual phytochemicals (50 µM) diluted in FBS-free culture media h. After incubation, test solutions were removed; the cells were washed with PBS and detached from the plates using trypsin-EDTA. Once transferred to centrifuge tubes, the cells were centrifuged (bench micro-centrifuge; 3000 rpm; 3 min), the supernatant was discarded, and a new wash cycle was performed. The cells were then equally divided for each assay. A negative control was used in all assays consisting of nonexposed cells incubated only with culture media.\nMitochondrial membrane potential (MMP) was evaluated using 5,5″,6,6″-tetrachloro-1,1″,3,3″-tetraethylbenzimidazolylcarbocyanineiodide (JC-1). Cells were processed as described for DCFDA but incubated with 200 µL of JC-1 (2 µM, in FBS-free DMEM) for 20 min (37 °C, in the dark)."}, "[11]": {"tested_on": "human glioblastoma cells (DBTRG-05MG)", "parameters": "method as in PMID 25131308", "settings": "cited from earlier work"}, "HepG2 cells [12]": {"tested_on": "HepG2 cells", "assay": "Cell cycle arrest (PI, flow cytometry), HepG2", "type": "cell-based, human", "settings": "compound 50 µM, 24 h", "description": "as §1\n(§8) Cell cycle arrest assessment was performed as described in [1]. Cells were processed as described above until cell detachment and centrifuged, after which the second washing step was performed with ice-cold PBS (0 °C). After centrifugation, the supernatant was discarded, and cells were fixed with 500 µL of ethanol:PBS solution (70:30, % v/v, previously cooled at −20 °C) for at least 4 h at −20 °C. After fixation, two washing cycles were performed: the first with ice-cold PBS (0 °C) and the second with room-temperature PBS, followed by the addition of 200 µL of a PBS solution containing PI (50 µg/mL), RNAse A (50 µg/mL), and Triton X-100 (0.1%). Cells were incubated for 30 min at 37 °C, and then cells were washed once with PBS to remove the staining solution. After resuspension in PBS, the data were acquired."}, "Caco-2 cells [13]": {"tested_on": "Caco-2 cells", "assay": "Cell cycle arrest (PI, flow cytometry), Caco-2", "type": "cell-based", "settings": "compound 50 µM, 24 h; listed as UA", "description": "as §1, §8"}, "Caco-2 cells [14]": {"tested_on": "Caco-2 cells", "assay": "Intracellular ROS (DCFDA, flow cytometry), Caco-2", "type": "cell-based", "settings": "compound 50 µM, 24 h", "description": "as §1, §7"}},
  "note": "Read-outs that look alike come from different tables or passages of the source.",
  "data": [
    {"smiles": "C[C@H]1[C@H](C)CC[C@]2(C(=O)O)CC[C@]3(C)C(=CC[C@@H]4[C@@]5(C)CC[C@H](O)C(C)(C)[C@@H]5CC[C@]43C)[C@H]12", "note": "[Ursolic acid, ursolic acid]", "values": [
      {"measurement": "MMP modulation, HuH7", "setting": "[1]", "value": "reduce MMP"},
      {"measurement": "cell death induction, HepG2", "setting": "HepG2 cells [2]", "value": "only slightly increased (p < 0.05) the percentage of necrotic cells"},
      {"measurement": "IC50", "setting": "HepG2 cells [3]; 24 h exposure, read-out: IC50 (µM) - HepG2 cells: 24 h", "value": "79.6 ± 2.45", "unit": "µM"},
      {"measurement": "IC50", "setting": "HepG2 cells [3]; 48 h exposure, read-out: IC50 (µM) - HepG2 cells: 48 h", "value": "75.2 ± 1.97", "unit": "µM"},
      {"measurement": "IC50", "setting": "Caco-2 cells [4]; 24 h exposure, read-out: IC50 (µM) - Caco-2 cells: 24 h", "value": "59 ± 1.35", "unit": "µM"},
      {"measurement": "IC50", "setting": "Caco-2 cells [4]; 48 h exposure, read-out: IC50 (µM) - Caco-2 cells: 48 h", "value": "44.3 ± 2.31", "unit": "µM"},
      {"measurement": "lipophilicity", "setting": "[5]", "value": "high lipophilicity"},
      {"measurement": "water solubility", "setting": "[5]", "value": "poor water solubility"},
      {"measurement": "cell cycle effect, HCT15", "setting": "[6]", "value": "cytostatic effect in the G0/G1 phase"},
      {"measurement": "IC50", "setting": "HepG2 cells [7]", "value": 41, "unit": "µM"},
      {"measurement": "percentage of cells in late apoptosis, Caco-2", "setting": "Caco-2 cells [8]", "value": "~ 70%"},
      {"measurement": "percentage of cells in necrosis, Caco-2", "setting": "Caco-2 cells [8]", "value": "~ 12%"},
      {"measurement": "change in intracellular ROS, HepG2", "setting": "HepG2 cells [9]", "value": "significant (p < 0.05) increase in intracellular HepG2 ROS levels"},
      {"measurement": "MMP modulation, HepG2", "setting": "HepG2 cells [10]", "value": "slight increase"},
      {"measurement": "cell death type, DBTRG-05MG", "setting": "[11]; 17.50 µM", "value": "mitochondria-dependent necrosis"},
      {"measurement": "MMP modulation, DBTRG-05MG", "setting": "[11]", "value": "transient hyperpolarization of the mitochondria membrane"},
      {"measurement": "cell cycle effect, HepG2", "setting": "HepG2 cells [12]", "value": "no UA-induced cytostatic effect"},
      {"measurement": "cell cycle effect, Caco-2", "setting": "Caco-2 cells [13]", "value": "cell cycle arrest in G0/G1"},
      {"measurement": "change in intracellular ROS, Caco-2", "setting": "Caco-2 cells [14]", "value": "increase in ROS"}
    ]}
  ]
}
